Test results published in ChEMBL document CHEMBL4265894, “Developing potential Helicobacter pylori urease inhibitors from novel oxoindoline derivatives: Synthesis, biological evaluation and in silico study” (Bioorg Med Chem Lett, 2018).
In brackets after ≈: the same amount, converted by molar mass.

Legend:
[1] = Cytotoxicity against human LO2 cells after 24 hrs by MTT assay; format: cell-based, L02
[2] = tested on: Helicobacter pylori; test: Antibacterial activity against Helicobacter pylori after 48 hrs; format: functional
[3] = target: Urease (Helicobacter pylori, UniProt Q0PXQ5); test: Inhibition of Helicobacter pylori urease after 50 mins by indophenol method
Sequence of Urease (Q0PXQ5 whole entry): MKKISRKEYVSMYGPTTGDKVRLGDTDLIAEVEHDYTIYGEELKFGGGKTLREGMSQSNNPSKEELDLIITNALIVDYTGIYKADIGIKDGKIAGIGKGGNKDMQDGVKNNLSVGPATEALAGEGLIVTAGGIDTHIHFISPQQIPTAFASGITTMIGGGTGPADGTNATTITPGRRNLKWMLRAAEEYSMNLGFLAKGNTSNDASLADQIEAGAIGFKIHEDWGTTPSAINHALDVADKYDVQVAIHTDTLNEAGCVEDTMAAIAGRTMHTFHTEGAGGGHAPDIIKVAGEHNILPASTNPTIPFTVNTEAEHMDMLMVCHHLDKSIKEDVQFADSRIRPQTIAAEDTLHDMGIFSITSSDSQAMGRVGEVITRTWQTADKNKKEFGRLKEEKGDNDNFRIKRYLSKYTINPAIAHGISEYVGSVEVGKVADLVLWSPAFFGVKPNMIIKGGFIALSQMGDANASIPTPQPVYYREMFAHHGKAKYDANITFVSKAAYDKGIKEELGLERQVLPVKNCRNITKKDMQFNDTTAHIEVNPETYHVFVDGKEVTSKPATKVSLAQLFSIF

[4] = Cytotoxicity against HEK293T cells after 24 hrs by MTT assay; format: cell-based, HEK-293T; details: human

Compound	GI50 at 24 h [1] [µM]	MIC [2] [µM]	IC50 [3] [µM]	GI50 at 24 h [4] [µM]
COc1ccc(C(=O)N/N=C2/C(=O)N(CC=C(C)C)c3ccccc32)cc1F	> 200	3.94 (≈ 1.5 µg/mL)	3.82	169
CC(C)=CCN1C(=O)/C(=N/NC(=O)c2cc(C)cc(C)c2)c2ccccc21	–	6.75 (≈ 2.44 µg/mL)	4.38	–
CC(C)=CCN1C(=O)/C(=N/NC(=O)c2cccc(Cl)c2)c2ccccc21	–	72.5 (≈ 26.7 µg/mL)	38.1	–
CC(C)=CCN1C(=O)/C(=N/NC(=O)c2ccc(C(C)C)cc2)c2ccccc21	–	27.5 (≈ 10.3 µg/mL)	14.9	–
CC(C)=CCN1C(=O)/C(=N/NC(=O)c2ccc(Br)cc2)c2ccccc21	–	137 (≈ 56.5 µg/mL)	83.9	–
COc1cccc(C(=O)N/N=C2/C(=O)N(CC=C(C)C)c3ccccc32)c1	–	15.2 (≈ 5.52 µg/mL)	8.21	–
CC(C)=CCN1C(=O)/C(=N/NC(=O)c2ccc(C(F)(F)F)cc2)c2ccccc21	–	83.9 (≈ 33.7 µg/mL)	44.1	–
CC(C)=CCN1C(=O)/C(=N/Nc2ccccc2)c2ccccc21	> 200	> 200	> 300	> 200
COc1cc(OC)cc(C(=O)N/N=C2/C(=O)N(CC=C(C)C)c3ccccc32)c1	188	1.96 (≈ 0.771 µg/mL)	1.35	176
CC(C)=CCN1C(=O)/C(=N/NC(=O)c2ccc(F)cc2)c2ccccc21	> 200	> 200	154	195
COc1ccc(C(=O)N/N=C2/C(=O)N(CC=C(C)C)c3ccccc32)cc1	–	10.3 (≈ 3.74 µg/mL)	6.99	–
CC(C)=CCN1C(=O)/C(=N/NC(=O)c2ccc(C)cc2)c2ccccc21	–	58.1 (≈ 20.2 µg/mL)	29.9	–
COc1ccccc1C(=O)N/N=C1/C(=O)N(CC=C(C)C)c2ccccc21	–	19.5 (≈ 7.09 µg/mL)	11.7	–
CC(C)=CCN1C(=O)/C(=N/NC(=O)c2cccc(Br)c2)c2ccccc21	–	50.5 (≈ 20.8 µg/mL)	27.6	–
CC(C)=CCN1C(=O)/C(=N/NC(=O)c2ccc(C(C)(C)C)cc2)c2ccccc21	–	30.8 (≈ 12 µg/mL)	19.5	–
CC(C)=CCN1C(=O)/C(=N/NC(=O)c2ccccc2)c2ccccc21	–	171 (≈ 57 µg/mL)	129	–
CC(C)=CCN1C(=O)/C(=N/NC(=O)c2cccc(C(F)(F)F)c2)c2ccccc21	–	108 (≈ 43.3 µg/mL)	65.8	–
COc1ccc(C(=O)N/N=C2/C(=O)N(CC=C(C)C)c3ccccc32)cc1OC	178	0.48 (≈ 0.189 µg/mL)	0.71	184
CC(C)=CCN1C(=O)/C(=N/NC(=O)c2ccc(Oc3ccccc3)cc2)c2ccccc21	–	41.8 (≈ 17.8 µg/mL)	22.7	–
CC(C)=CCN1C(=O)/C(=N/NC(=O)c2ccc(Cl)cc2)c2ccccc21	> 200	185 (≈ 68 µg/mL)	143	> 200
CC(=O)NO [ACETOHYDROXAMIC ACID]	–	–	17.2	–
Cc1ncc([N+](=O)[O-])n1CCO [METRONIDAZOLE]	–	31.3 (≈ 5.36 µg/mL)	–	–
